Source: patent publication US8822413B2, “Bifunctional hormone having alpha-MSH activity and natriuretic peptide activity and uses thereof” (Theratechnologies Inc., priority 2007, dated 2014)
Bridge positions count the residues as written; N and C are the ends. Square brackets hold non-standard residues; d marks the D form. Peptide text beside a SMILES is read from it.

Columns and labels:
[1] = biological target: T1, ANP receptor (Sus scrofa, UniProt F1SFW3); experiment: cGMP production in ANP receptor-expressing LLC-PK1 cells; format: cell-based; conditions: 30 min stimulation, 10^-6M through 10^-12M, NR = No response detected
T1 construct: ANP receptor-expressing LLC-PK1 cells; endogenous in cells; host or cells: LLC-PK1 cells
T1 sequence (F1SFW3 29-1057): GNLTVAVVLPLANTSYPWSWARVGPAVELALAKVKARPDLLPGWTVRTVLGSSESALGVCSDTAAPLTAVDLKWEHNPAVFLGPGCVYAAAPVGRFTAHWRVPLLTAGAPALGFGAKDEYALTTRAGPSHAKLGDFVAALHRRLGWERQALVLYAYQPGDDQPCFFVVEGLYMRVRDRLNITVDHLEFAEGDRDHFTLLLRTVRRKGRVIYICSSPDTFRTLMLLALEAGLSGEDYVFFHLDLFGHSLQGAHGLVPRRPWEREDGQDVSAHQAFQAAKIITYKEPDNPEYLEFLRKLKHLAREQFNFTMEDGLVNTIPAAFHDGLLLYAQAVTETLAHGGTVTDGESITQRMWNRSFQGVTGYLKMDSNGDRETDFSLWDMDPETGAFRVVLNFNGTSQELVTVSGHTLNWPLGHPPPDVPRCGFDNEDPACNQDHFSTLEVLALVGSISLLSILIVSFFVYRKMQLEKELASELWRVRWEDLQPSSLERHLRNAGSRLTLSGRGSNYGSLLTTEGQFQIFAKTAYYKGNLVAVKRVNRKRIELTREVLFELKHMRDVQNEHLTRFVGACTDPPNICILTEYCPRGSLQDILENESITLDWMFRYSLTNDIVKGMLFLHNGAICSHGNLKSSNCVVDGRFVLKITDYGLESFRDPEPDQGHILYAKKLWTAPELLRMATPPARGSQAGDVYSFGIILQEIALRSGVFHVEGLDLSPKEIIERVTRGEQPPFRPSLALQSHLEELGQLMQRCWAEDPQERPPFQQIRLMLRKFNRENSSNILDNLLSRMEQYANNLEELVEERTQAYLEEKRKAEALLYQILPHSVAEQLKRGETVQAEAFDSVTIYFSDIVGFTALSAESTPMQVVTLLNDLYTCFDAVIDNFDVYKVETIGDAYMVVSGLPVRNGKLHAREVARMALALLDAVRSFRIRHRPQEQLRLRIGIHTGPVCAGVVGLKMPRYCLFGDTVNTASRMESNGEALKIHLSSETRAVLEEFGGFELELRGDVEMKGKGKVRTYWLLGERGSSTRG
Description: The bifunctional hormone was tested on ANP receptor-expressing LLC-PK1 cells and on MCR1 receptor-expressing B16-F1 cells. Both cell types were cultured 24 hours before the stimulation, in 96-well plates, at a concentration of 1.0×10^5 cells/ml. Before stimulation, cells were starved 2 hours in DPBS only and incubated 10 min in assay buffer (DPBS containing 20 mM HEPES, 0.1% BSA and 500 μM IBMX). The dose response curve of the bifunctional hormone was done for 30 minutes with concentrations of 10^−6M through 10^−12M. Supernatant was collected and cAMP (B16-F1) or cGMP (LLC-PK1) was measured with a radiolabeled kit from GE Healthcare Company.

[2] = test system: normal men; conditions: infusion in normal men; cited from earlier work

Compound | EC50 [1] | increase in sodium excretion [2] | reduction in plasma renin, angiotensin II and aldosterone secretion [2]
CC[C@H](C)[C@@H]1NC(=O)[C@H](CCCNC(=N)N)NC(=O)[C@H](CC(=O)O)NC(=O)[C@H](CCSC)NC(=O)[C@H](CCCNC(=N)N)NC(=O)CNC(=O)CNC(=O)[C@H](Cc2ccccc2)NC(=O)[C@@H](NC(=O)[C@H](CO)NC(=O)[C@H](CO)NC(=O)[C@H](CCCNC(=N)N)NC(=O)[C@H](CCCNC(=N)N)NC(=O)CNC(=O)[C@H](Cc2c[nH]c3ccccc23)NC(=O)[C@H](CCCNC(=N)N)NC(=O)[C@H](Cc2ccccc2)NC(=O)[C@H](Cc2c[nH]cn2)NC(=O)[C@H](CCC(=O)O)NC(C)=O)CSSC[C@@H](C(=O)N[C@@H](CC(N)=O)C(=O)N[C@@H](CO)C(=O)N[C@@H](Cc2ccccc2)C(=O)N[C@@H](CCCNC(=N)N)C(=O)N[C@@H](Cc2ccc(O)cc2)C(N)=O)NC(=O)CNC(=O)[C@H](CC(C)C)NC(=O)CNC(=O)[C@H](CO)NC(=O)[C@H](CCC(N)=O)NC(=O)[C@H](C)NC(=O)CNC1=O [SEQ ID NO: 41, Ac-E-H-F-R-W-G-R-R-S-S-[C-F-G-G-R-M-D-R-I-G-A-Q-S-G-L-G-C]-N-S-F-R-Y-NH2] (Ac-EHFRWGRRSSCFGGRMDRIGAQSGLGCNSFRY-NH2; disulfide 11-27) | 0.0089 µM | – | –
CC[C@H](C)[C@@H]1NC(=O)[C@H](CCCNC(=N)N)NC(=O)[C@H](CC(=O)O)NC(=O)[C@H](CCSC)NC(=O)[C@H](CCCNC(=N)N)NC(=O)CNC(=O)CNC(=O)[C@H](Cc2ccccc2)NC(=O)[C@@H](NC(=O)[C@H](CO)NC(=O)[C@H](CO)NC(=O)[C@H](CCCNC(=N)N)NC(=O)[C@H](CCCNC(=N)N)NC(=O)CNC(=O)[C@H](Cc2c[nH]c3ccccc23)NC(=O)[C@H](CCCNC(=N)N)NC(=O)[C@@H](Cc2ccccc2)NC(=O)[C@H](Cc2c[nH]cn2)NC(=O)[C@H](CCC(=O)O)NC(C)=O)CSSC[C@@H](C(=O)N[C@@H](CC(N)=O)C(=O)N[C@@H](CO)C(=O)N[C@@H](Cc2ccccc2)C(=O)N[C@@H](CCCNC(=N)N)C(=O)N[C@@H](Cc2ccc(O)cc2)C(N)=O)NC(=O)CNC(=O)[C@H](CC(C)C)NC(=O)CNC(=O)[C@H](CO)NC(=O)[C@H](CCC(N)=O)NC(=O)[C@H](C)NC(=O)CNC1=O [SEQ ID NO: 42, Ac-E-H-f-R-W-G-R-R-S-S-[C-F-G-G-R-M-D-R-I-G-A-Q-S-G-L-G-C]-N-S-F-R-Y-NH2] (Ac-EH[dF]RWGRRSSCFGGRMDRIGAQSGLGCNSFRY-NH2; disulfide 11-27) | 0.502 µM | – | –
CC[C@H](C)[C@@H]1NC(=O)[C@H](CCCNC(=N)N)NC(=O)[C@H](CC(=O)O)NC(=O)[C@H](CCSC)NC(=O)[C@H](CCCNC(=N)N)NC(=O)CNC(=O)CNC(=O)[C@H](Cc2ccccc2)NC(=O)[C@@H](NC(=O)[C@H](CCSC)NC(=O)[C@@H]2CCCN2C(=O)[C@H](CCCCN)NC(=O)CNC(=O)[C@H](Cc2c[nH]c3ccccc23)NC(=O)[C@H](CCCNC(=N)N)NC(=O)[C@H](Cc2c[nH]cn2)NC(C)=O)CSSC[C@@H](C(=O)N[C@@H](CC(N)=O)C(=O)N[C@@H](CO)C(=O)N[C@@H](Cc2ccccc2)C(=O)N[C@@H](CCCNC(=N)N)C(=O)N[C@@H](Cc2ccc(O)cc2)C(N)=O)NC(=O)CNC(=O)[C@H](CC(C)C)NC(=O)CNC(=O)[C@H](CO)NC(=O)[C@H](CCC(N)=O)NC(=O)[C@H](C)NC(=O)CNC1=O [SEQ ID NO: 43, Ac-H-R-W-G-K-P-M-[C-F-G-G-R-M-D-R-I-G-A-Q-S-G-L-G-C]-N-S-F-R-Y-NH2] (Ac-HRWGKPMCFGGRMDRIGAQSGLGCNSFRY-NH2; disulfide 8-24) | 0.0868 µM | – | –
S-P-K-M-V-Q-G-S-G-[C-P-G-R-K-M-D-R-I-S-S-S-S-G-L-G-C]-K-V-L-R-R-H [BNP] | – | 2 fold | 50%
